According to US20250312469A1 (CANGET BIOTEKPHARMA, priority 2024, published 2025):
Values joined by “and” are separate entries in the source; they are usually repeats but may differ in a detail not shown here. Equal entries are not always repeated.

Columns and labels:
[1] = molecular target: T1, USP2a (Homo sapiens, UniProt O75604); assay: Cell-based polyUb/MdmX and USP2a mRNA/protein analysis in PCa cells; parameters: purchased Invitrogen ProtoArray Human Protein Microarray v5.0
T1 sequence (O75604 1-605): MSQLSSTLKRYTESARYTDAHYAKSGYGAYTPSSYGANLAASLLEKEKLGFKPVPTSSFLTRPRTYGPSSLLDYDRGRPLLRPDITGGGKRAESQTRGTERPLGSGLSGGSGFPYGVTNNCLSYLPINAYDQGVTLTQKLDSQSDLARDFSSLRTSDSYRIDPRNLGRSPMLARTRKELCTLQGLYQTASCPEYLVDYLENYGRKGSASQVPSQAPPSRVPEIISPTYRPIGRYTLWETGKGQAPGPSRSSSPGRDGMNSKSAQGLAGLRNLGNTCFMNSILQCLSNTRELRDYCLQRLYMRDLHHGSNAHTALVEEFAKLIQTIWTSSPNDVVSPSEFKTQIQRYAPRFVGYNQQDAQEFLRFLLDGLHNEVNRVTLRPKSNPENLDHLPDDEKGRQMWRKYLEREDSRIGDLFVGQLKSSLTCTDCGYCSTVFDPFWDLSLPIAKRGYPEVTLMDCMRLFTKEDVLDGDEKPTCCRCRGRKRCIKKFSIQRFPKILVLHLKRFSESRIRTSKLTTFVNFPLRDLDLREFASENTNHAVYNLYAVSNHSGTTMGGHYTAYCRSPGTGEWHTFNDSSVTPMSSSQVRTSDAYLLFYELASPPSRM

[2] = Blood partitioning
[3] = tested on: TA100; assay: Ames Bacterial Reverse Mutation Assay
[4] = molecular target: T2, bovine serum albumin (BSA) (Bos taurus, UniProt P02769); assay: ITC, BSA control protein; type: binding
T2 construct: purchased EMD (Billerica, MA)
Description: (2) Preparation of Flag-DDX5, Flag-USP2, Flag-UbE2T and Flag-Top1 protein solutions (>360 μL/sample), respectively, containing 10 μM of Flag-DDX5, Flag-USP2, Flag-UbE2T or Flag-Top1 proteins in 1×PBS (pH7.4) and 8% DMSO from protein stocks in 1× PBS (the same solution was also prepared for BSA).
(3) preparation of washing/diluting solution (>2.5 mL/sample) containing 1× PBS (pH7.4) and 8% DMSO.
(4) ITC assay was performed using the auto-iTC200 instrument (MicroCal, GE). A protein solution (Flag-DDX5, Flag-USP2, Flag-UbE2T, Flag-Topl or BSA) with defined concentration (10 μM) in a volume of 360 μL in 1×PBS (pH7.4) containing 8% DMSO was loaded into the calorimeter cell as the Macromolecule (M). […] At each injection, the program calculates [M]t and [X]t (total protein and total ligand at that injection). The binding constant (KD)), binding stoichiometry (n), and thermodynamic parameters (AH and AS) were determined by fitting the titration curve to a one-site binding mode, using the Origin software provided by the manufacturer.

[5] = Plasma stability; type: in vitro ADME, human
Description: Both matrices were adjusted to pH 7.4 prior to initiating the experiments. A DMSO stock as first prepared for the test article. […] The vials were kept in a benchtop Thermomixer for the duration of the experiment. Aliquots (100 μL) were taken at each time point (0, 15, 30, 60, and 120 minutes) and added to 96-well plates which had been pre-filled with 300 μL of acetonitrile (ACN). Samples were stored at 4° C. until the end of the experiment. […] Analytical conditions are outlined in Appendix 1.

[6] = molecular target: T3, UbE2T (Homo sapiens, UniProt Q9NPD8); assay: UbE2T protein (WB) and mRNA (RT-PCR) in PCa cells; type: cell-based; parameters: purchased Invitrogen ProtoArray Human Protein Microarray v5.0
T3 sequence (Q9NPD8 1-197): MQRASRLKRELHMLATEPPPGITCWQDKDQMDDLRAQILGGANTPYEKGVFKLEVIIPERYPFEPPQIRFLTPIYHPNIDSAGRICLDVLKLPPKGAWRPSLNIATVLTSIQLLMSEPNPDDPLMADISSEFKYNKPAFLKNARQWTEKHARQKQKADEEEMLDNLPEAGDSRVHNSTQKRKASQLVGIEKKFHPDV

[7] = tested on: TA1535; assay: Ames Bacterial Reverse Mutation Assay
[8] = TA1535 partial repeat, 0.010 μM −S9
[9] = TA1535 partial repeat, 0.10 μM −S9
[10] = TA1535 partial repeat, 1.0 μM −S9

T2 sequence (P02769 25-607): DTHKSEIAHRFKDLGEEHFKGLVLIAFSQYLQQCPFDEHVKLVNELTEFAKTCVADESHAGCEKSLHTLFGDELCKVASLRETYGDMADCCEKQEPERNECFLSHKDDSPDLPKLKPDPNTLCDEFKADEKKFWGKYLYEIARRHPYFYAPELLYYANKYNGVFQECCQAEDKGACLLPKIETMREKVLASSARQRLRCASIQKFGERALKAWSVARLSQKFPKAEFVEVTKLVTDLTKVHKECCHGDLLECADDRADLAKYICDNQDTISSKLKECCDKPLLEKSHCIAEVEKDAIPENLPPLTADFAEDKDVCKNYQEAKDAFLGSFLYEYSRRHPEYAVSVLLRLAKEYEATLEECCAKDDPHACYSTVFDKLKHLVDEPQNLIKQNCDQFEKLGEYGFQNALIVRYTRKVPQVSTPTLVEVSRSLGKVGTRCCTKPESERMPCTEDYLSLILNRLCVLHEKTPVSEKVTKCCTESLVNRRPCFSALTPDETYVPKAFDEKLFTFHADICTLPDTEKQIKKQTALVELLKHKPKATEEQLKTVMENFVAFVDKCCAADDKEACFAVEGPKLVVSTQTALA

CCC1(O)C(=O)OCc2c1cc1n(c2=O)Cc2cc3cc4c(cc3nc2-1)OCO4 (stereo not drawn) [FL118]
USP2a mRNA and protein level [1]: USP2a increases | polyUb-mediated MdmX degradation in cells [1]: promotes polyUb-mediated MdmX degradation | whole blood partitioning ([2]; 1 μM): favorable whole blood partitioning results | RBC to Plasma Partitioning (KRBC/P) ([2]; human whole blood): 1.04 | bacterial strain mutation [3]: does not induce | mean revertant colonies over negative control ([3]; +/− S9): less than 2 fold | Background Lawn Code ([3]; TA100, 0.010 μM +S9): 1 | Colony Counts Average ([3]; TA100, 0.010 μM +S9): 92 | Colony Counts Replicate 1-3 ([3]; TA100, 0.010 μM +S9): 101 and 96 and 79 | Background Lawn Code ([3]; TA100, 0.010 μM −S9): 1 | Colony Counts Average ([3]; TA100, 0.010 μM −S9): 77 | Colony Counts Replicate 1-3 ([3]; TA100, 0.010 μM −S9): 72 and 79 and 80 | Background Lawn Code ([3]; TA100, 0.10 μM +S9): 1 | Colony Counts Average ([3]; TA100, 0.10 μM +S9): 89 | Colony Counts Replicate 1-3 ([3]; TA100, 0.10 μM +S9): 96 and 74 and 98 | Background Lawn Code ([3]; TA100, 0.10 μM −S9): 1 | Colony Counts Average ([3]; TA100, 0.10 μM −S9): 87 | Colony Counts Replicate 1-3 ([3]; TA100, 0.10 μM −S9): 89 and 77 and 94 | Background Lawn Code ([3]; TA100, 1.0 μM +S9): 1 | Colony Counts Average ([3]; TA100, 1.0 μM +S9): 99 | Colony Counts Replicate 1-3 ([3]; TA100, 1.0 μM +S9): 105 and 106 and 87 | Background Lawn Code ([3]; TA100, 1.0 μM −S9): 1 | Colony Counts Average ([3]; TA100, 1.0 μM −S9): 83 | Colony Counts Replicate 1-3 ([3]; TA100, 1.0 μM −S9): 94 and 75 and 81 | binding to BSA [4]: no binding | half-life ([5]; 0.5 μM): long half-life | Percent Remaining ([5]; Human Plasma, 0 min): 100% | Percent Remaining ([5]; Human Plasma, 15 min): 111% | Percent Remaining ([5]; Human Plasma, 30 min): 110% | Percent Remaining ([5]; Human Plasma, 60 min): 94% | Percent Remaining ([5]; Human Plasma, 120 min): 26% | half-life at 0.5 μM ([5]; both sexes, plasma (sodium heparin), pH 7.4, Human Plasma): 1.53 h | UbE2T mRNA [6]: without inhibiting its mRNA levels | UbE2T protein [6]: inhibits UbE2T protein in a dose- and time-dependent manner | bacterial strain mutation [7]: does not induce | Background Lawn Code ([7]; TA1535, 0.010 μM +S9): 1 | Colony Counts Average ([7]; TA1535, 0.010 μM +S9): 14 | Colony Counts Replicate 1-3 ([7]; TA1535, 0.010 μM +S9): 20 and 9 and 13 | Background Lawn Code ([7]; TA1535, 0.010 μM −S9): 1 | Colony Counts Average ([7]; TA1535, 0.010 μM −S9): 39 | Colony Counts Replicate 1-3 ([7]; TA1535, 0.010 μM −S9): 39 and 37 and 41 | Background Lawn Code ([7]; TA1535, 0.10 μM +S9): 1 | Colony Counts Average ([7]; TA1535, 0.10 μM +S9): 14 | Colony Counts Replicate 1-3 ([7]; TA1535, 0.10 μM +S9): 13 and 8 and 20 | Background Lawn Code ([7]; TA1535, 0.10 μM −S9): 1 | Colony Counts Average ([7]; TA1535, 0.10 μM −S9): 61 | Colony Counts Replicate 1-3 ([7]; TA1535, 0.10 μM −S9): 54 and 62 and 67 | Background Lawn Code ([7]; TA1535, 1.0 μM +S9): 1 | Colony Counts Average ([7]; TA1535, 1.0 μM +S9): 12 | Colony Counts Replicate 1-3 ([7]; TA1535, 1.0 μM +S9): 12 and 10 and 15 | Background Lawn Code ([7]; TA1535, 1.0 μM −S9): 1 | Colony Counts Average ([7]; TA1535, 1.0 μM −S9): 25 | Colony Counts Replicate 1-3 ([7]; TA1535, 1.0 μM −S9): 23 and 21 and 30 | Background Lawn Code [7, 8]: 1 | Colony Counts Average [7, 8]: 12 | Colony Counts Replicate 1-3 [7, 8]: 13 and 12 (2×) | Background Lawn Code [7, 9]: 1 | Colony Counts Average [7, 9]: 14 | Colony Counts Replicate 1-3 [7, 9]: 16 and 15 and 10 | Background Lawn Code [7, 10]: 1 | Colony Counts Average [7, 10]: 12 | Colony Counts Replicate 1-3 [7, 10]: 11 and 13 and 12 | mean revertant colonies over negative control ([7]; repeat assay, -S9 condition): less than 2 fold
